The values that follow come from patent US9079936B2, “Derivatives of APF and methods of use” (University of Maryland, Baltimore, priority 2007, dated 2015).

“Also recorded” adds a separate entry of the source.

Test [1] relates to tight junction proteins in IC/PBS cells. Description: Immunofluorescence confocal microscopy of tight junction proteins. The note with it: IC/PBS cell explants treated for 9 days. The format is cell-based, human. How it is done:
For immunofluorescence, cells were fixed using ethanol/acetone (1:1) for 15 minutes at room temperature, washed 3 times with PBS and incubated with fluorescein isothiocyanate (FITC) labeled mouse monoclonal anti-ZO-1 (5 μg/ml); or unlabeled mouse monoclonal anti-occludin (5 μg/ml) or anti-claudin 4 (3 μg/ml); or unlabeled rabbit polyclonal anti-claudin 1 (3 μg/ml), anti-claudin 8 (8 μg/ml), or anti-claudin 12 (5 μg/ml) antibodies (all from Zymed, South San Francisco, Calif.) diluted in PBS for 2 hours at 37 C. Cells incubated with unlabeled mouse monoclonal primary antibodies were then washed 3 times with PBS and further incubated with FITC-labeled secondary goat anti-mouse IgG antibody (Zymed) diluted in PBS, while cells incubated with unlabeled rabbit polyclonal primary antibodies were washed and further incubated for 2 hours at 37 C with goat anti-rabbit IgG (Zymed) diluted in PBS. Following an additional 5 washes with PBS, the cells were examined using an LSM510 confocal laser scanning microscope (Carl Zeiss, Oberkochen, Germany). Negative controls for the method included cells incubated without primary and secondary antibodies as well as cells incubated with secondary antibody alone.

Test [2] relates to APF activity in normal bladder epithelial cells. Description: Inhibition of APF antiproliferative activity in APF-treated normal bladder cells (3H-thymidine incorporation). The conditions noted are these: pretreatment with derivative, then active synthetic APF (as-APF), IC/PBS and/or normal bladder cells. In kind it is cell-based, human. Here is the method:
(§1) IC/PBS cells were incubated with varying concentrations of GalGalNAc-TV(D-proline)AAVVVA (SEQ ID NO:11), wherein such glycosylated peptide is SEQ ID NO:30). Cell proliferation was determined by ^3H-thymidine incorporation; gene expression by quantitative RT-PCR; specific protein expression by Western blot analysis; tight junction formation by confocal immunofluorescence microscopy; and paracellular permeability by ^14C-mannitol and ^3H-inulin flux between confluent cells on Transwell plates. Significance of the difference in mean values between groups was determined by an analysis of variance for each assay.
as §1, with “a derivative shown to inhibit APF activity in normal bladder cells—GalGalNAc-TV-(D-proline)-AAVVVA” for “GalGalNAc-TV(D-proline)AAVVVA”, “NO: 11),” for “NO:11),”, “RT-PCR;” for “RT-PCR; specific protein expression by Western blot analysis;”, “^14H-inulin” for “^3H-inulin”
(§2) Cell proliferation was measured by ^3H-thymidine incorporation into explanted normal human bladder epithelial cells, as previously described (Keay et al., 2000; Keay et al., 2001; Keay et al., 2004; Keay et al., 2003; Saitoh et al., 2001). Significant inhibition of ^3H-thymidine incorporation was defined as a mean decrease in counts per minute of greater than 2 standard deviations from the mean of control cells for each plate.
On the technique in general: Uptake of a labelled nucleoside into DNA is a usual measure of proliferation.

The subject of test [3] is normal human bladder epithelial cells. Description: 3H-thymidine incorporation into explanted normal human bladder epithelial cells. In kind it is cell-based. Here is the method:
Cell proliferation was measured by ^3H-thymidine incorporation into explanted normal human bladder epithelial cells, as previously described (Keay et al., 2001; Keay et al., 2000; Keay et al., 2003a; Keay et al., 2003b; Keay et al., 1996). Briefly, purified native or synthetic APF (or the appropriate mock preparation) was diluted in serum-free MEM (containing only glutamine and antibiotics/antimycotics) and applied to the cells; cell controls received serum-free MEM alone. Cells were then incubated at 37° C. in a 5% CO2 atmosphere for 48 hours. The cells were then labeled with 1 μCi/well ^3H-thymidine for 4 hours, trypsinized, insoluble cell contents harvested and methanol-fixed onto glass fiber filter paper, and the amount of radioactivity incorporated determined. […]
The present example concerns exemplary comprehensive structure-activity relationship (SAR) studies on the peptide portion of antiproliferative factor (APF). […] Antiproliferative activity of each derivative was determined by inhibition of ^3H-thymidine incorporation in primary normal human bladder epithelial cells.
^3H-Thymidine Incorporation. […] The cell contents harvested and methanol-fixed onto glass fiber filter paper, and the amount of radioactivity incorporated determined. […]

Test [4] concerns tight junction protein gene expression in IC/PBS cells. Description: qRT-PCR for tight junction gene expression. The format is cell-based, human. The note with it: 16 and 30 day treatment, relative to β-actin. Here is the method: Total RNA was extracted from IC/PBS and normal control epithelial cell explants using the RNEasy Plus Mini Kit (Qiagen) according to the manufacturer's protocol. Quantitative real time RT-PCR for tight junction gene expression was performed using Quantitect Primers (Qiagen), SYBR Green RT-PCR kit reagents (Qiagen), and a Roche 480 Light-Cycler. Samples were tested in triplicate runs, and specific mRNA levels quantified and compared to mRNA levels for β-actin using LightCycler 480 real-time PCR analysis software (version 1.5).
(§3) For the permeability assay, the percentage of total counts in the basal medium was determined in four experiments (using different IC/PBS cell donors), and expressed as mean±standard deviation. Crossover point analysis was performed for qRT-PCR data, and expression of each gene was quantified relative to β-actin; this value was expressed as mean±standard error of the mean for duplicate runs performed on two separate occasions. ^3H-thymidine incorporation was determined in triplicate on two separate occasions, and the CPM expressed as mean±standard deviation.
(In general: In qPCR the cycle at which signal appears reflects the starting amount.)

In the next test the test system is IC/PBS cell monolayers. Description: Paracellular permeability assay (14C-mannitol and 3H-inulin flux, Transwell). In kind it is cell-based, human. The conditions noted are these: IC/PBS cells, 16 or 30 days treatment. How it is done:
Flux assays were performed using 12-mm Transwell culture plates (Corning Incorporated, Corning, N.Y.), as previously described (Keay et al., 2000). Cells were plated at 4×10^5 cells/cm^2 on the insert and grown in DMEM-F12 medium containing 10% heat-inactivated FBS, 1% antibiotic solution, 1% L-glutamine, 0.25 units/ml insulin (all from Sigma, St. Louis, Mo.), and 5 ng/ml hEGF (R & D Systems, Minneapolis, Minn.) to establish tight monolayers. On day 2, the medium was changed to MEM (GIBCO/Invitrogen) containing 1% antibiotic/antimycotic solution and 1% L-glutamine (Sigma).
Two different membrane impermeable molecules, [^14C]-mannitol (molecular weight: 184 Daltons) and [3H]-inulin (molecular weight: 5,200 Daltons), served as paracellular tracers. At the beginning of the flux assay, both sides of the bathing wells of Transwell filters were replaced with fresh medium containing either 5 mM unlabeled mannitol or 0.5 mM unlabeled inulin. Each tracer was added at a final concentration of 3.6 nM for [^14C]-mannitol and 0.36 nM for [^3H]-inulin to the apical bathing wells. The basal bathing well contained the same medium as the apical compartment but without tracers. Flux assays were performed at 37° C.; basal medium was collected at 0.5-6 hrs after addition of [^14C]-mannitol or [^3H]-inulin, and the amount of radioactivity determined using a Beckman LS 5000 scintillation counter. Results were expressed as percentage of total counts for each tracer.
as §3

For test [5], the system named is bladder epithelial cells from IC/PBS patients. Description: IC/PBS cell proliferation (3H-thymidine incorporation). In kind it is cell-based, human. The conditions noted are these: for effect on IC cell proliferation: 0.25 uM, 9, 16, 23 and 30 day treatment (Example 12). How it is done:
as §1
Study of the effect of APF proline on IC cell proliferation (as measured by thymidine incorporation) following 9, 16, 23, and 30 day treatment with 0.25 uM of the agent.
as §1, with “a derivative shown to inhibit APF activity in normal bladder cells—GalGalNAc-TV-(D-proline)-AAVVVA” for “GalGalNAc-TV(D-proline)AAVVVA”, “NO: 11),” for “NO:11),”, “RT-PCR;” for “RT-PCR; specific protein expression by Western blot analysis;”, “^14H-inulin” for “^3H-inulin”
IC/PBS cells produce APF and as a result have a profound decrease in cell proliferation. […] Cells were treated with 1 nM D-proline APF twice weekly, and thymidine incorporation was determined at 9, 16, 23 and 30 days.
as §2

[6] abbreviates: listed as GalGalNAc-TV(D-proline)AAVVVA.
The mark [7] stands for this setting: listed as GalGalNAc-TV-(D-proline)-AAVVVA.

Regarding “GalGalNAc-TV(D-proline)AAVVVA [D-proline APF]”, in test [1], the “tight junction protein expression and localization” value was “also increased”. Further, the figures for the “blocking of APF antiproliferative activity” value in test [2], in test [2] (setting [6]) and in test [2] (setting [7]) were “inhibited this activity in nanomolar concentrations in a dose-dependent manner”, “blocked APF activity” and “blocked APF antiproliferative activity; also recorded: blocks APF's inhibitory effects on cell proliferation”, respectively. In test [3] (3H-thymidine incorporation, normal bladder epithelial cells), the antiproliferative activity result is listed as “did not have any intrinsic antiproliferative activity”. Besides, in test [3] (inactive = no significant activity at <25 μM (cut-off limit of the assay)), the “antiproliferative activity normalized to as-APF” value was “inactive”. The “tight junction protein mRNA expression” value in test [4] is “stimulation of tight junction protein expression; also recorded: stimulate mRNA expression for ZO-1, occludin, and specific claudin (1, 4, 8, and 12)”; in test [4] (setting [6]), “significantly increase zonula occludens-1 and claudin 1, 4 and 8 expression”; in test [4] (setting [7]) it was “significantly increased ZO-1, occludin, and claudin 1, 4, 8, and 12 expression”. In addition, the “paracellular permeability (14C-mannitol, 3H-inulin)” value in the test with IC/PBS cell monolayers is reported as “normalized; also recorded: significantly decreased paracellular permeability of both tracer molecules”; with IC/PBS cell monolayers (setting [6]) it was “decrease permeability of IC/PBS cells”; in the test with IC/PBS cell monolayers (listed as GalGalNAc-TV-(D-Proline)-AAVVVA), “significantly decrease permeability of IC/PBS cells”; with IC/PBS cell monolayers (setting [7]), “normalize IC/PBS cell paracellular permeability”. Also, the “stimulation of IC/PBS cell proliferation” value in test [5] (1 nM twice weekly, thymidine incorporation at 9, 16, 23 and 30 days (Example 14)) is on record as “stimulated IC/PBS cell proliferation by Day 16”. Also, the “effect on IC cell proliferation” value is “significantly stimulated at both time points” in test [5] and “Optimal stimulation of IC cell proliferation was observed up to the level of normal bladder cell proliferation” in test [5] (listed as APF proline).
